Results published in patent US5488049A, “Method of treating learning and memory disorders using benzothiadiazide derivatives as nootropic agents” (FIDIA - Georgetown Institute for the Neuro-Sciences, priority 1993, dated 1996).
“Also recorded” adds a separate entry of the source.

What was measured:
[1] = test system: rats; assay: Water maze: drug action on learning and retention in rats; type: in vivo, rat
Procedure: Rats (male, 250 g) were trained once a day in maze A (See FIG. 8B forced maze) for 2 consecutive days. The day of the experiment, after a first exposure to maze A, IDRA 21 (15 mg/kg) Aniracetam (500 mg/kg) or vehicle (cont) were administered per oral gavage and 30 min later the animals were exposed once again to Maze A. After 30 min of interatrial rest, rats were exposed to Maze B (see FIG. 8C open maze).
(§1) The water maze apparatus was adapted from Kant et al., (16), and consists of three concentric squares placed inside a 5 ft plastic pool (FIG. 6). The walls of the maze are 50 cm in height and are constructed from black opaque plastic to allow for tracking of the animal with an overhead camera. The alleys between the walls are 16 cm wide. In the center of each wall there is a removable doorway. The opening of doorways allows for the construction of mazes with an increasing number of potential error possibilities. (See diagram for Maze A and Maze B, FIG. 6). The maze is located in a room 10'×15' at constant temperature (18° C.) adjacent to the vivarium. The room is illuminated with overhead lights which also serve as spatial cues. Additional spatial cues are provided by the position of the investigator and a number of small white x's placed within specific locations upon the walls of the maze. The maze is filled with water (18°)C. to a depth of 25 cm.
(§2) Seven days prior to drug studies, rats were tested in Maze A (forced maze) on two consecutive days. Pretesting with the "forced" maze enabled the assessment of the animals' general motor, sensory and motivational abilities, and facilitated the exclusion of those animals unable to meet pretesting criteria. Performance was assessed by determining either swim time, errors committed, or path length measured with a computerized recording device. Errors are defined as whole body entry into alleys not leading directly to the exit platform (i.e., shaded portions in FIG. 6). Rats were excluded from the study if their swim path length and/or number of errors were two standard deviations above the mean […] of the entire group. During the first two trials, the rats were placed into the center of the maze and given a maximum of 180 secs to find the "exit platform" located at the "finish" (FIG. 6). The time required, the number of errors, and the path length were recorded for each trial. […] Rats meeting the criteria were randomly divided into groups. On the day of the experiment, a single trial was run (Maze A) in order to establish a baseline of performance. Following drug administration, the rats were again tested once on Maze A to establish a baseline of post-treatment performance. Following an additional interatrial interval of 30 min., the rats were tested on Maze B.

[2] = test system: rats; assay: Water maze: drug action on alprazolam-disrupted learning behavior in rats; type: in vivo, rat; settings: IDRA 21 10 mg/kg os, 30 min pretreatment; alprazolam 1.5 mg/kg i.p.
Procedure: Rats (male 250 g b.w.) were trained two days, once a day, in maze A (See insert A). […] Rats were exposed to a new maze configuration (Maze B) in 4 successive trials 15, 30, 45, and 60 min after the i.p. injections.
as §1, §2
In these experiments, rats were trained in Maze B 15, 30, 45 and 60 min. after drug injection.

In the case of `CC1Nc2ccc(Cl)cc2S(=O)(=O)N1` (racemic) [IDRA 21, 7-chloro-3-methyl-3,4-dihydro-2H 1,2,4-benzothiadiazine S-S dioxide], the “efficacy in improving water maze performance of trained rats, vs aniracetam” value ([1]; 0.2 μmol icv vs aniracetam 1.8 μmol icv) is reported as “at least as efficacious as aniracetam”, the “performance in water maze (errors and time, Maze B)” value ([1]; 15 mg/kg os) is reported as “significantly improves the performance of rats, reducing the number of errors and the time interval in accomplishing the task in Maze B” and the “improvement of water maze performance” value ([1]; FIG. 8A, IDRA 21 15 mg/kg, Aniracetam 500 mg/kg oral) is reported as “improve water performance in rats”. For the same compound, the “significance (P) of water maze performance vs control” value ([1]; IDRA 21 15 mg/kg, Aniracetam 500 mg/kg per oral gavage, at least 5 rats) was under 0.05, the “potency vs aniracetam in potentiating learning and enhancing cognitive performance” value ([1]; racemic form, naive rats and rats with alprazolam-disrupted learning) was “at least an order of magnitude more potent than aniracetam” and the “antagonism of alprazolam amnesic effect” value [2] was “reduces the amnesic effect of alprazolam; also recorded: attenuates the learning disruptive effect of Alprazolam”.
